Experimental data from ChEMBL document CHEMBL3045924, “Synthesis, molecular docking, and cardioprotective activity of 2-methylthio-1,4-dihydropyrimidines” (2012).

Assays:
Format in all cases: functional
[1] = system: Rattus norvegicus; assay: (§1) Cardioprotective activity in adrenaline-induced MI Rattus norvegicus Sprague-Dawley (rat) model assessed as increase in R-R interval at 5 mg/kg, po for 15 days challenged with adrenaline on day 14 and day 15 measured after 24 hr post second adrenaline injection by ECG analysis (reference value: 0.135 +/- 0.0176 sec)
[2] = system: Rattus norvegicus; assay: as §1, with “decrease” for “increase”, “ST” for “R-R”, “0.0829” for “0.135”, “0.0024” for “0.0176”
[3] = system: Rattus norvegicus; assay: as §1, with “decrease” for “increase”, “QT” for “R-R”, “interval prolongation” for “interval”, “0.08205” for “0.135”, “0.0023” for “0.0176”
[4] = system: Rattus norvegicus; assay: Cardioprotective activity in adrenaline-induced MI Rattus norvegicus Sprague-Dawley (rat) model assessed as decrease in heart rate at 5 mg/kg, po for 15 days challenged with adrenaline on day 14 and day 15 measured after 24 hr post second adrenaline injection (reference value: 422.76 +/- 6.158 bpm)
[5] = system: Rattus norvegicus; assay: as §1, with “effect on P-duration” for “increase in R-R interval”, “0.01136” for “0.135”, “0.0044” for “0.0176”

Compound	Time [1]	Time [2]	Time [3]	Activity [4]	Time [5]
COC(=O)C1=C(C)NC(C)=C(C(=O)OC)C1c1ccccc1[N+](=O)[O-] [NIFEDIPINE]	0.2146 s	0.0455 s	0.06101 s	278.5 bpm	0.01815 s
COC(=O)C1=C(C)NC(SC)=NC1c1ccc(Cl)cc1 (stereo not given)	0.1533 s	0.0545 s	0.03879 s	382.03 bpm	0.01358 s
CCOC(=O)C1=C(C)NC(SC)=NC1c1ccc([N+](=O)[O-])cc1 (stereo not given)	0.1852 s	0.05879 s	0.06664 s	315.766 bpm	0.0166 s
